Results as given in PMC3025571 (Nucleic Acids Research, 2010).
Like-named read-outs stand apart in the source and are kept apart here. One block for each compound: values may come before it.

Biological target: human FEN1 (Homo sapiens, UniProt P39748)
Test: Kinetic fluorogenic
Type: biochemical

Chain of human FEN1 (P39748 whole entry): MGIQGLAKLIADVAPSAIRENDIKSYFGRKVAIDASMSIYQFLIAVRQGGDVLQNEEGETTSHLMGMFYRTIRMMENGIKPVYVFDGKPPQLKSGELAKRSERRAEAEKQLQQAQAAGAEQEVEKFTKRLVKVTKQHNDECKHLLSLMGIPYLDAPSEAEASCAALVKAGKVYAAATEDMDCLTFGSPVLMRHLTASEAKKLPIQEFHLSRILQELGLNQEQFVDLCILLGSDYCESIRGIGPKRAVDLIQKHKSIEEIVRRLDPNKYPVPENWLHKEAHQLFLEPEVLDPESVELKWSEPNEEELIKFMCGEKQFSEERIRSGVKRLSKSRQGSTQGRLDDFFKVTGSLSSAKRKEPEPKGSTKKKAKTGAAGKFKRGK

Structure (SMILES): O=C(O)c1cc[c]([Sb](=[O])([OH])[OH])cc1[N+](=O)[O-] [NSC-13755]
IC50 (read-out: average IC50, average of the fluorogenic and AlphaScreen assays): 0.93 µM

inhibition of FEN1 (concentrations up to 0.67%, data not shown, assay format not specified): not inhibit
Structure (SMILES): C[S+](C)[O-] [DMSO, Dimethyl sulfoxide]

IC50 (average IC50, average of the fluorogenic and AlphaScreen assays): 0.59 µM
Structure (SMILES): O=C(O)C1=CC(=C(c2ccc(O)c(C(=O)O)c2)c2ccc(O)c(C(=O)O)c2)C=CC1=O [ATA, aurintricarboxylic acid]
